# From ChEMBL document CHEMBL1157539, “Thousands of chemical starting points for antimalarial lead identification” (Nature, 2010)
# Test system: Plasmodium falciparum
# Experiment: GSK_TCMDC: Inhibition of Plasmodium falciparum 3D7 in whole erythrocytes, using parasite LDH activity as an index of growth.
# Type: functional, organism-based
# Details: Plasmodium falciparum, 3D7
row,Structure (SMILES),XC50 [µM]
1,Cc1noc(C)c1-c1cccc(CNCc2cccc(-c3cccc(-c4nc5cc(F)ccc5[nH]4)c3)c2)c1,0.176
2,Clc1cc(Cl)c2cc(CN[C@H]3CCC[C@@H]3CNc3nc4ccccc4[nH]3)[nH]c2c1,0.275
3,COc1ccc(-c2cnc(NCc3ccccc3)nc2)cc1CNC1CCN(C)CC1,0.782
4,CC(C)NCc1ccc(-c2cccc(CN3CCC(c4ccccc4)CC3)c2)c(C(=O)NCC2CCCCC2)c1,0.847
5,Cc1cc(-c2cccc3c(C(=O)N4CCc5cc6nccc(N7CCCN(C)CC7)c6cc54)cccc23)cc(C)n1,0.437
6,Clc1cc(Nc2ccnc3ccc(Br)cc23)ccc1Oc1ccc2ccccc2c1Cl,0.725
7,COc1cc(Cc2cnc(N)nc2N)cc(OCC(C)(C)C(=O)O)c1OC,1.11
8,Cc1cccc2nc(O)c([N+](=O)[O-])c(O)c12,0.911
9,Cc1nnsc1C(=O)Nc1cccc(-c2ccc(-c3nc4ccccc4[nH]3)s2)c1,0.885
10,O=C(/C=C/c1ccc(Cl)c(Cl)c1)NCCCCCN1CC[C@H](NC(=O)Nc2ccc(Oc3ccccc3)cc2)C1,0.703
11,Cc1cc(C)c2oc(-c3cccc(NC(=O)c4ccc([N+](=O)[O-])o4)c3C)nc2c1,1.15
12,Clc1ccc2c(NN=Cc3cccs3)ccnc2c1,0.922
13,COc1cc(Nc2nccc(N3CCC(NC(=O)C4COc5ccccc5O4)C3)n2)cc(OC)c1OC (stereo unspecified),0.924
14,COC(=O)c1cccc(CNCc2cccc(-c3cccc(-c4nc5ccccc5[nH]4)c3)c2)c1,0.504
15,O=C(Nc1ccc(C(=O)N2CCN(CCN3CCN(c4cccc(C(F)(F)F)c4)CC3)CC2)cc1)c1ccc(OC(F)(F)F)cc1,0.691
16,CC(C)(C)C1CCC(CC2=C(C(=O)O)c3ccccc3C2=O)CC1 (stereo unspecified),1.1
17,CS(=O)(=O)NCCCNCc1ccc(-c2ccc(-c3nc4cc(C(F)(F)F)ccc4[nH]3)cc2)cc1,0.457
18,CCN(CC)CCN(Cc1ccc(-c2ccc(C(F)(F)F)cc2)cc1)C(=O)Cn1c(CCc2cccc(F)c2F)nc(=O)c2cc(C)ccc21,0.936
19,Cc1onc(-c2ccccc2Cl)c1C(=O)Nc1cc(Cl)c(Cl)cc1Cl,1.18
20,C[C@H](Cc1ccc(OCCCCCCOc2ccccc2)cc1)NC[C@H](O)c1cccc(Cl)c1,0.0704
21,Cc1ccccc1C(=O)Nc1cccc(-c2nc3ncccn3c2C)c1,0.765
22,Oc1ccc(CCNCc2ccc(OCc3ccccc3)c(OCc3ccccc3)c2)cc1,1.51
23,COc1ccc(CNCc2ccc(-c3ccc(-c4nc5cc(C(F)(F)F)ccc5[nH]4)s3)cc2)cc1,0.174
24,CCOc1c(C)cc(C(F)(F)F)cc1CNCCCNc1cc(=O)c2ccccc2[nH]1,0.161

row,Structure (SMILES),XC50 [µM]
1,Cc1cc2[nH]c(-c3ccc(C(=O)NCCCN4CCN(c5cccc(Cl)c5)CC4)cc3)nc2cc1Cl,0.769
2,C/C=C1\CN2CC[C@H]1C[C@@H]2[C@@H](O)c1ccnc2ccc(O)cc12,0.245
3,O=C(/C=C/c1ccc(F)cc1)NC1CCC(CCN2CCc3ccccc3CC2)CC1 (stereo unspecified),1.4
4,Oc1ccc(CCNc2nc(NCc3ccccc3-c3cccc(Cl)c3)nc(N3CCNCC3)n2)cc1,1.28
5,Cc1cc(N(C)CCCN2CCCCC2)nc(Nc2ccc(Cl)cc2)n1,0.188
6,Cc1nc(N)nc(N)c1OCc1cccc2c1ccc1ccccc12,0.0988
7,O=C(/C=C/c1ccc(Cl)c(Cl)c1)NCCCCCN1CCCN(C(=S)Nc2ccc(Cl)c(Cl)c2)CC1,0.869
8,Cc1cccc(C(=O)N2CCN(Cc3cccc(NC(=O)c4cccs4)c3)CC2)c1,0.221
9,Cc1nc(C)c(-c2ccc(Oc3cc(Cl)cc(Cl)c3)cc2)c(O)c1Br,0.242
10,FC(F)(F)c1ccc(/C=C/c2cncnc2Nc2ccc3[nH]c(Cc4ccccc4)nc3c2)cc1,0.608
11,O=C(Nc1ccc(-c2ccccc2)cc1)Nc1cccc(Cn2ncc(N3CCNCC3)c(Cl)c2=O)c1,0.456
12,Cc1cc(=O)[nH]c(-n2nc(C)cc2NC(=O)CC(c2ccccc2)c2ccccc2)n1,1.1
13,CCCc1cc(C(=O)N[C@@H](Cc2ccccc2)[C@H](O)CNC(C)C)c(F)c(N2CCCC2=O)c1,0.943
14,N=C1N=C(N)NC2(CCCCC2)N1OCCCOc1cc(Cl)c(Cl)cc1Cl,0.0032
15,CCc1c(CCNCCCCCCNCCc2ccccc2)ccc(OC)c1OC,0.8
16,Cc1cnc(-c2ccc(NC(=O)N3CCc4cc5nccc(N6CCN7CCC[C@H]7C6)c5cc43)c3ccccc23)o1,0.858
17,O=C1CCCN1CCCNCc1cccc(-c2cccc(-c3nc4cc(C(F)(F)F)ccc4[nH]3)c2)c1,0.299
18,Cc1ccc(CNC(=O)[C@H](CC(C)C)Nc2cc(C)nc(NCc3ccccc3C)n2)cc1,0.952
19,CN(C)c1ccc(CN2CCC(CNC(=O)c3cc(-c4cccc(F)c4)cs3)C2)cc1 (stereo unspecified),1.02
20,O=C(NC1CCN(Cc2ccccc2)CC1)c1ccc(-c2nc3cc(Cl)c(F)cc3[nH]2)s1,0.306
21,O=C(/C=C/c1ccc(Cl)c(Cl)c1)NCCCCCN1CCN(C(=O)Nc2ccc(C(F)(F)F)cc2)CC1,0.721
22,COc1cccc(C=Cc2nc(=O)c3ccccc3o2)c1OC,0.0644
23,CC1(C)NC(N)=NC(=N)N1OCCCCCCOc1ccc(Cl)c2ccccc12,0.0032
24,CC(C#N)Cc1ccc(-c2cnc(N)c3cc(-c4ccnc(N)n4)ccc23)cc1 (stereo unspecified),0.986

row,Structure (SMILES),XC50 [µM]
1,OC1(c2ccc(Cl)c(C(F)(F)F)c2)CCN(CCOC2c3ccccc3CSc3ccc(Cl)cc32)CC1 (stereo unspecified),0.799
2,NC(=O)C1CCN(Cc2cccc(-c3ccc(-c4nc5cc(C(F)(F)F)ccc5[nH]4)cc3)c2)CC1,0.61
3,Cc1cc(N(C)C2CCN(C)CC2)nc(Nc2ccc(Cl)cc2)n1,0.29
4,COc1ccc(S(=O)(=O)N2CCCC(C)C2)cc1N1CCN(C(=O)c2ccc([N+](=O)[O-])o2)CC1 (stereo unspecified),1.25
5,CC(C)Cc1cnc2nc(N)nc(N)c2c1,0.491
6,CC1(C)N=C(N)N=C(N)N1c1ccc(Oc2ccccc2)cc1,0.341
7,COc1ccc(NS(=O)(=O)c2cc(NC(=O)Cn3ccccc3=O)ccc2N2CCCCC2)cc1,0.695
8,c1ccn2c(Sc3ncnc4sccc34)ncc2c1,0.663
9,O=C(Nc1ccon1)c1cc(-c2cccnc2)nc2ccc(Cl)cc12,0.786
10,Cc1cc(NCC2CCN(CC3CCCCC3)C2)nc(Nc2ccc(Cl)cc2)n1 (stereo unspecified),0.739
11,Nc1nc(N)c2c(ccc3c2ccn3CCCCO)n1,0.117
12,CCc1cc2c(cc1OCCN(C)C)N(C(=O)Nc1ccc(-c3ccncc3)c(Cl)c1)CC2,0.84
13,Cc1ccc2ccncc2c1N,0.697
14,CCCCCn1c(Sc2ccc(C#N)c([N+](=O)[O-])c2)nnc1-c1cc(OC)cc(OC)c1,0.956
15,Cc1nc(N)nc(N)c1OCCCCOc1ccccc1,0.0535
16,C=C[C@]1(C)C[C@@H](OC(=O)c2n[nH]c3ccccc3c2=O)[C@]2(C)[C@H](C)CC[C@]3(CCC(=O)[C@H]32)[C@@H](C)[C@@H]1O,0.67
17,CCN(CC)CCN(Cc1ccc(-c2ccc(C(F)(F)F)cc2)cc1)C(=O)c1c[nH]c2ccc(Br)cc12,0.953
18,O=C(NC1CCN(CC2(c3ccccc3)CCCC2)CC1)c1n[nH]cc1Cl,1.04
19,CCN(CC)CCN(Cc1ccc(-c2ccc(C(F)(F)F)cc2)cc1)C(=O)Cn1c(CCc2cccc(F)c2F)c(C)c(=O)c2ccccc21,0.942
20,Fc1c(CNCC2CCN(CC3CCCCC3)CC2)cccc1C(F)(F)F,0.9
21,COc1cccc2cc(C(=O)N[C@@H](CC(C)C)C(=O)N[C@H](C=NN(C)C(=O)OC(C)(C)C)Cc3ccccc3)oc12,0.262
22,Cc1cc(N(C)C)nc(Nc2ccc(NC(=O)c3ccc(Br)o3)cc2)n1,1.05
23,CN1CCC(N(Cc2ccc(-c3cnc(NCc4ccccc4)nc3)cc2)S(=O)(=O)c2ccccc2)CC1,0.777
24,CC(CN1CCN(C)CC1)C(=O)Nc1ccc(-c2csc(-c3nc4ccccc4[nH]3)c2)cc1 (stereo unspecified),0.837

row,Structure (SMILES),XC50 [µM]
1,Cc1cccc2nc(-c3ccc(-c4cccc(CN5CCN(c6ccc(C#N)cn6)CC5)c4)s3)[nH]c12,1.42
2,COc1ccc(C=NNc2cc(C)nc3ccc(OC)cc23)c(OC)c1,0.778
3,COc1cc(CNCCCCCCNCc2cc(OC)c3ccccc3c2OC)c(OC)c2ccccc12,0.7
4,COc1ccc2ncc(Cl)c(CCN3CCC(NCc4ccc5c(n4)NC(=O)CS5)CC3)c2c1,0.59
5,CCOc1cc(Br)c(C(C)NC(=O)c2cccc(OC)c2)cc1OCC (stereo unspecified),0.168
6,N=C(N)NN=Cc1c2ccccc2c(Cl)c2c(Cl)cccc12,0.878
7,Cc1ccc(F)c(C(=O)Nc2cccc(-c3nn4ccccc4c3-c3ccnc(Nc4cccc(F)c4)n3)c2)c1F,1.05
8,O=C(/C=C/c1ccc(Cl)c(Cl)c1)N1CCC(CN2CCC(c3c[nH]c4ccc(NS(=O)(=O)c5cccs5)cc34)CC2)CC1,0.218
9,CCOc1ccc(N2C(N)=NC(N)=NC2(C)C)cc1,0.259
10,COC(=O)c1cccc(CNCc2ccc(-c3ccc(-c4nc5cc(F)ccc5[nH]4)cc3)cc2)c1,0.237
11,CC(CCCCC(=O)Nc1ccc(C(F)(F)F)cc1)NCC(O)c1cccc(Cl)c1 (stereo unspecified),0.282
12,CN1CCC(C(=O)Nc2ccc(-c3ccc(-c4nc5ccccc5[nH]4)s3)cc2)CC1,0.816
13,Cc1ccc(Nc2ccnc3cc(-c4nccs4)ccc23)cc1C(O)c1ccccc1 (stereo unspecified),0.735
14,Nc1nc(N)c2cc3ccc(OCc4ccccc4)cc3nc2n1,0.32
15,CC(C)(C)OC(=O)NCCc1cccc(-c2c[nH]c3ncc(-c4cccc(NS(C)(=O)=O)c4)cc23)c1,0.684
16,C[C@H](NC(=O)[C@H](CCCCNC(=O)OC(C)(C)C)NC(=O)OC(C)(C)c1ccc(-c2ccccc2)cc1)C(=O)OCc1ccccc1,0.181
17,Cc1ccc(C(NC(=O)Cc2ccccc2)c2ccc3cccnc3c2O)cc1 (stereo unspecified),0.623
18,CC(C)N(CCOc1ccc2c(c1)N(C(=O)Nc1cc(Br)cc(C(F)(F)F)c1)CC2)C(C)C,0.108
19,Cc1ccc(NC(=O)N2CCCN(CCCCCNC(=O)/C=C/c3ccc(Cl)c(Cl)c3)CC2)cc1C,0.773
20,COc1ccc(-n2ccnc2SCC(=O)Nc2cc(C)ccc2C)c(OC)c1,0.205
21,C=CCOc1cccc2c1CCN(CCN1CCC(NC(=O)c3ccc(-c4ccc(Cl)cc4)cc3)CC1)C2,0.673
22,CC(c1cccc(S(=O)(=O)NCc2cccc(C(F)(F)F)c2)c1)N1CCC(N2CCCCC2)CC1 (stereo unspecified),0.695
23,O=C(NCc1cccc(C(F)(F)F)c1)C(c1cc2ccccc2o1)N1CCN(C(c2ccccc2)c2ccccc2)CC1 (stereo unspecified),0.498
24,CC(=O)c1ccccc1C(=O)N1CCOc2ccc(C(O)C(c3ccccc3)c3ccccc3)cc2C1 (stereo unspecified),0.905
